# Key:
# [1] = system: C-iPS EC; assay: GDNF ELISA in conditioned media from control iPS-derived ECs; assay type: cell-based, human; conditions: 2 ng/ml FGF-2
# Experimental: Testis, lung, or liver ECs were plated (10,000 cells ml^−1) on 12 well dishes coated with 0.1% gelatin and cultured for 24 hours. Conditioned media was harvested at 24 and 48 hours after FGF-2 (2 ng ml^−1, 20 ng ml^−1 and 50 ng ml^−1) treatment and analyzed by ELISA for GDNF (Promega GDNF Emax immunoassay system, #G7621) following the manufacturer's instruction. Statistics was analyzed using Graph Pad Prism. For quantification of Gdnf mRNA, total RNA was isolated from the cells using Direct-zol RNA MiniPrep (Zymo Research) and reverse transcribed using High Capacity cDNA Reverse Transcription Kit (Appliedbiosystems), according to the manufacturer's instructions. All gene expression levels were normalized to GAPDH mRNA levels.
# To generate iPSC lines, either human fibroblasts/stromal cells were transduced with pMXs-based retroviral supernatant with human OCT4, SOX2, KLF4, or MYC as described^30, or mononuclear cells were infected with pHage2-CMV-RTTA-W and pHage-Tet-hSTEMMCA-loxP virus as described^31. All cells were culture on 0.1% gelatin-coated dishes in human endothelial cell medium (Lonza; EGM®-MV Bulletkit) with 50 ng ml^−1 additional VEGF. 500,000 disaggregated single embryonic bodies from human iPSCs were cultured for 48 hours. Non-adherent cells were gently removed and adherent cells were cultured for 1-2 passages. […]
# [2] = system: EGR-1; assay: Western blot of EGR-1 expression in LuECs; assay type: cell-based, mouse; conditions: LuEC
# From the text: FIG. 5. GDNF expression in TECs is regulated by CaN-NFAT signaling. a. Immunouorescence images of testis sections immunostained with the stem cell markers DDX4 and Oct4 and DAPI to stain DNA. Testes were harvested from 1-week-old or 4-week-old Euploid or Ts65Dn mice. Quantication of DDX4+ and Oct4+ cells relative to DAPI per high-powered eld (HPF) is shown on the right, ***P<0.0001. Bar=50 μm. Two-way ANOVA test. b. […] Values are mean±s.e.m. n=4. c. Quantication of GDNF levels by ELISA in conditioned media from murine TECs, LuEC and LiEC after 2 ngml-1 FGF-2 treatment in the presence or absence of CsA. Values are mean±s.e.m., n=4. d. H&E-stained cross-sections from testes of age-matched Euploid, Ts65Dn or Ts65Dn mice 5 weeks after implantation with GFP+ TECs isolated from syngeneic wild-type mice (Ts65Dn+GFP+ TECs). Red dotted line encircles mature sperm (yellow arrow) in the lumen of the seminiferous tubules. Immunouorescence images with GFP and DAPI to stain DNA of testis sections from Ts65Dn+GFP+TECs mice. e. Western blot analysis of EGR-1 protein expression in TECs and LuECs untreated or after FGF-2 treatment, expression of constitutively active NFATc1 (caNFATc1) or an empty vector control. Actin was probed as a loading control. f. Quantication of nuclear translocation of EGR1 and NFATc1 in TECs after treatment with conditioned media (CM), 2 ng ml-1 FGF-2±CsA. Values are mean±s.e.m. g. […]
# [3] = system: EGR-1; assay: EGR-1 expression in DS-iPS EC; assay type: cell-based, human
# [4] = system: NFATc1 and EGR-1; assay: Nuclear translocation of NFATc1 and EGR-1 in TECs; assay type: cell-based, mouse; conditions: TEC, 2 ng/ml FGF-2
# [5] = system: Thy1.2+GFP+ SSCs; assay: Colony formation of GFP+ SSCs co-cultured with TECs with added growth factors; assay type: cell-based, mouse; conditions: Thy1.2+GFP+ cells co-cultured with TECs, factors added to growth media
# Experimental: 2D co-cultures were generated by plating 2.7×10^5 cultured GFP^+ SSCs on STO feeder cells 28 or on top of 200 μl of solid matrigel mixture containing TEC (BD bioscience) in serum free medium 28 with exogenous GDNF 10 ng ml^−1 (R&D system), GFR^+ 75 ng ml^−1 (R&D system) and FGF2 1 ng ml^−1 (BD Biosciences). Average GFP^+ SSC colony area was measured and GFP^+ SSC cell number were counted 8 days after plating. Each condition was performed in triplicate.
# FIG. 4. a. Quantication of GDNF levels by ELISA in conditioned media from TECs isolated from Fgfr1+/+ or Fgfr1−/− mice. Bar=1 cm. b. Images of testes from busulfan-treated (45 mgkg-1) WT mice 12 weeks post transplantation with PBS(Φ), Fgfr1+/+ TECs or Fgfr1/−/− TECs. Testis weights are indicated on the right (n=4). c. H&E images of testis sections from control (Fgfr1+/+) or endothelialspecic deletion of Fgfr1 (Fgfr1iΔEC/iΔEC) mice at 12 weeks after tamoxifen treatment to induce fgfr1 deletion from ECs. Red stars indicate empty seminiferous tubule. Bar=100 μm. d. Representative bright-eld and GFP images of GFP+ SSCs co-cultured with TECs with the addition of FGF±GDNF at the indicated concentrations after 4 weeks. SSC colony number and size over time are shown on right. e. Immunouorescence images of testis sections from Fgfr1+/+ or Fgfr1iΔEC/iΔEC mice 5 weeks after busulfan treatment at the indicated concentrations. […]
substance,measurement,setting,value
fibroblast growth factor-2 [FGF-2],GDNF production after FGF2 treatment,[1],stimulated robust GDNF production
same,EGR-1 expression after FGF-2 treatment,[2],not
same,EGR-1 expression after FGF treatment,[3],minimal EGR-1 expression
same,nuclear localization of EGR1,[4],increased
same,nuclear localization of NFATc1,[4],increased
same,SSC colony formation (number and size of colonies),[5],sufficient for SSC maintenance and expansion
